According to BindingDB's records for doi:10.1016/s0960-894x(99)00213-9 (Cardiff University, 1999):

Experiments:
[1] = target: Dihydrofolate reductase (Trypanosoma cruzi); experiment: Inhibitory activity against Trypanosoma cruzi dihydrofolate reductase
[2] = target: Dihydrofolate reductase (Trypanosoma cruzi); experiment: as above; remark: listed apart in the source

Ki [1] | Ki [2] | SMILES
0.183 nM |  | Nc1nc(N)c2nc(CN(CCCCCC(=O)O)c3ccc(C(=O)NC(CCC(=O)O)C(=O)O)cc3)cnc2n1 (centres undefined) [2-{4-[(5-Carboxy-pentyl)-(2,4-diamino-pteridin-6-ylmethyl)-amino]-benzoylamino}-pentanedioic acid]
 | 56 nM | CCOC(=O)CCCCCN(Cc1cnc2nc(N)nc(N)c2n1)c1ccc(C(=O)NC(CCC(=O)OCC)C(=O)OCC)cc1 (centres undefined) [2-{4-[(2,4-Diamino-pteridin-6-ylmethyl)-(5-ethoxycarbonyl-pentyl)-amino]-benzoylamino}-pentanedioic acid diethyl ester]
 | 0.131 nM | Nc1nc(N)c2nc(CN(CCCCC(=O)O)c3ccc(C(=O)NC(CCC(=O)O)C(=O)O)cc3)cnc2n1 (centres undefined) [2-{4-[(4-Carboxy-butyl)-(2,4-diamino-pteridin-6-ylmethyl)-amino]-benzoylamino}-pentanedioic acid]
 | 46 nM | CCOC(=O)CCCCN(Cc1cnc2nc(N)nc(N)c2n1)c1ccc(C(=O)NC(CCC(=O)OCC)C(=O)OCC)cc1 (centres undefined) [2-{4-[(2,4-Diamino-pteridin-6-ylmethyl)-(4-ethoxycarbonyl-butyl)-amino]-benzoylamino}-pentanedioic acid diethyl ester]
